Reference: PubChem BioAssay (NCI)
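Exposure lasted 48 hours, with cells grown in 96-well plates and compounds tested at five concentrations. TGI denotes the concentration required for complete inhibition of growth.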

Legend:
Assay in all cases: growth of human tumour cells (NCI), 48 h
786-0 renal = tested on: 786-0 renal
A549 NSCLC = tested on: A549 NSCLC
ACHN renal = tested on: ACHN renal
CAKI-1 renal = tested on: CAKI-1 renal
CCRF-CEM leukemia = tested on: CCRF-CEM leukemia
COLO 205 colon = tested on: COLO 205 colon
DLD-1 colon = tested on: DLD-1 colon
DMS 114 small cell lung = tested on: DMS 114 small cell lung
DMS 273 small cell lung = tested on: DMS 273 small cell lung
EKVX NSCLC = tested on: EKVX NSCLC
HCC-2998 colon = tested on: HCC-2998 colon
HCT-116 colon = tested on: HCT-116 colon
HCT-15 colon = tested on: HCT-15 colon
HL-60(TB) leukemia = tested on: HL-60(TB) leukemia
HOP-92 NSCLC = tested on: HOP-92 NSCLC
HT29 colon = tested on: HT29 colon
IGROV1 ovarian = tested on: IGROV1 ovarian
K-562 leukemia = tested on: K-562 leukemia
KM12 colon = tested on: KM12 colon
KM20L2 colon = tested on: KM20L2 colon
LOX IMVI melanoma = tested on: LOX IMVI melanoma
LXFL 529 NSCLC = tested on: LXFL 529 NSCLC
M14 melanoma = tested on: M14 melanoma
MALME-3M melanoma = tested on: MALME-3M melanoma
MOLT-4 leukemia = tested on: MOLT-4 leukemia
NCI-H226 lung = tested on: NCI-H226 lung
NCI-H23 lung = tested on: NCI-H23 lung
NCI-H460 lung = tested on: NCI-H460 lung
NCI-H522 lung = tested on: NCI-H522 lung
OVCAR-3 ovarian = tested on: OVCAR-3 ovarian
OVCAR-4 ovarian = tested on: OVCAR-4 ovarian
OVCAR-5 ovarian = tested on: OVCAR-5 ovarian
OVCAR-8 ovarian = tested on: OVCAR-8 ovarian
RPMI-8226 leukemia = tested on: RPMI-8226 leukemia
RXF 393 renal = tested on: RXF 393 renal
RXF-631 renal = tested on: RXF-631 renal
SF-268 CNS = tested on: SF-268 CNS
SF-295 CNS = tested on: SF-295 CNS
SF-539 CNS = tested on: SF-539 CNS
SK-MEL-2 melanoma = tested on: SK-MEL-2 melanoma
SK-MEL-28 melanoma = tested on: SK-MEL-28 melanoma
SK-OV-3 ovarian = tested on: SK-OV-3 ovarian
SN12C renal = tested on: SN12C renal
SNB-19 CNS = tested on: SNB-19 CNS
SNB-75 CNS = tested on: SNB-75 CNS
SR leukemia = tested on: SR leukemia
SW-620 colon = tested on: SW-620 colon
TK-10 renal = tested on: TK-10 renal
U251 CNS = tested on: U251 CNS
UACC-257 melanoma = tested on: UACC-257 melanoma
UACC-62 melanoma = tested on: UACC-62 melanoma
UO-31 renal = tested on: UO-31 renal
XF 498 CNS = tested on: XF 498 CNS
A498 renal = tested on: A498 renal
HOP-62 NSCLC = tested on: HOP-62 NSCLC
SK-MEL-5 melanoma = tested on: SK-MEL-5 melanoma
SNB-78 CNS = tested on: SNB-78 CNS

COc1cc(NS(C)(=O)=O)ccc1NCc1c2ccccc2nc2ccccc12
TGI (786-0 renal): > 100 µM | TGI (A549 NSCLC): > 100 µM | TGI (ACHN renal): > 100 µM | TGI (CAKI-1 renal): > 100 µM | TGI (CCRF-CEM leukemia): 33.5 µM | TGI (COLO 205 colon): > 100 µM | TGI (DLD-1 colon): 85.4 µM | TGI (DMS 114 small cell lung): 58.2 µM | TGI (DMS 273 small cell lung): > 100 µM | TGI (EKVX NSCLC): > 100 µM | TGI (HCC-2998 colon): > 100 µM | TGI (HCT-116 colon): 36.6 µM | TGI (HCT-15 colon): > 100 µM | TGI (HL-60(TB) leukemia): 47.4 µM | TGI (HOP-92 NSCLC): 92.7 µM | TGI (HT29 colon): > 100 µM | TGI (IGROV1 ovarian): > 100 µM | TGI (K-562 leukemia): > 100 µM | TGI (KM12 colon): > 100 µM | TGI (KM20L2 colon): > 100 µM | TGI (LOX IMVI melanoma): 91.1 µM | TGI (LXFL 529 NSCLC): > 100 µM | TGI (M14 melanoma): > 100 µM | TGI (MALME-3M melanoma): > 100 µM | TGI (MOLT-4 leukemia): 35 µM | TGI (NCI-H226 lung): > 100 µM | TGI (NCI-H23 lung): > 100 µM | TGI (NCI-H460 lung): > 100 µM | TGI (NCI-H522 lung): 77.3 µM | TGI (OVCAR-3 ovarian): > 100 µM | TGI (OVCAR-4 ovarian): 22.3 µM | TGI (OVCAR-5 ovarian): > 100 µM | TGI (OVCAR-8 ovarian): 99.1 µM | TGI (RPMI-8226 leukemia): 71.1 µM | TGI (RXF 393 renal): 57.5 µM | TGI (RXF-631 renal): 71.3 µM | TGI (SF-268 CNS): > 100 µM | TGI (SF-295 CNS): > 100 µM | TGI (SF-539 CNS): 65.2 µM | TGI (SK-MEL-2 melanoma): > 100 µM | TGI (SK-MEL-28 melanoma): > 100 µM | TGI (SK-OV-3 ovarian): > 100 µM | TGI (SN12C renal): > 100 µM | TGI (SNB-19 CNS): > 100 µM | TGI (SNB-75 CNS): > 100 µM | TGI (SR leukemia): 62.9 µM | TGI (SW-620 colon): > 100 µM | TGI (TK-10 renal): > 100 µM | TGI (U251 CNS): > 100 µM | TGI (UACC-257 melanoma): > 100 µM | TGI (UACC-62 melanoma): > 100 µM | TGI (UO-31 renal): > 100 µM | TGI (XF 498 CNS): 65.9 µM

CC1CC(C)C2OC2(C)C[C@H](C)C(=O)NC(C)C(=O)N(C)[C@H](Cc2c(Br)[nH]c3ccccc23)C(=O)N[C@@H](c2ccc(O)cc2)CC(=O)O1 (stereo partly drawn)
TGI (786-0 renal): 19.1 µM | TGI (A498 renal): 1.79 µM | TGI (A549 NSCLC): > 100 µM | TGI (ACHN renal): 27.2 µM | TGI (CAKI-1 renal): 4.71 µM | TGI (CCRF-CEM leukemia): > 65 µM | TGI (COLO 205 colon): 0.145 µM | TGI (DLD-1 colon): > 100 µM | TGI (DMS 114 small cell lung): 2.63 µM | TGI (DMS 273 small cell lung): 83.1 µM | TGI (EKVX NSCLC): 75.8 µM | TGI (HCC-2998 colon): 0.505 µM | TGI (HCT-116 colon): > 33.1 µM | TGI (HCT-15 colon): > 100 µM | TGI (HL-60(TB) leukemia): 0.783 µM | TGI (HOP-62 NSCLC): 1.4 µM | TGI (HOP-92 NSCLC): 0.638 µM | TGI (IGROV1 ovarian): 0.683 µM | TGI (K-562 leukemia): > 77.4 µM | TGI (KM12 colon): > 100 µM | TGI (KM20L2 colon): > 50.1 µM | TGI (LOX IMVI melanoma): 1.66 µM | TGI (LXFL 529 NSCLC): 13.3 µM | TGI (M14 melanoma): 19.5 µM | TGI (MALME-3M melanoma): 14 µM | TGI (MOLT-4 leukemia): 57.3 µM | TGI (NCI-H226 lung): 2.23 µM | TGI (NCI-H23 lung): > 40.4 µM | TGI (NCI-H460 lung): > 100 µM | TGI (NCI-H522 lung): 0.856 µM | TGI (OVCAR-3 ovarian): 9.61 µM | TGI (OVCAR-4 ovarian): 1.09 µM | TGI (OVCAR-5 ovarian): 18.8 µM | TGI (OVCAR-8 ovarian): > 52.7 µM | TGI (RPMI-8226 leukemia): 5.43 µM | TGI (RXF 393 renal): 4.81 µM | TGI (RXF-631 renal): > 100 µM | TGI (SF-295 CNS): 31.3 µM | TGI (SF-539 CNS): 0.383 µM | TGI (SK-MEL-2 melanoma): 0.876 µM | TGI (SK-MEL-28 melanoma): 12.2 µM | TGI (SK-MEL-5 melanoma): 17.1 µM | TGI (SK-OV-3 ovarian): 3.04 µM | TGI (SN12C renal): > 100 µM | TGI (SNB-19 CNS): 0.544 µM | TGI (SNB-75 CNS): 2.32 µM | TGI (SNB-78 CNS): 0.763 µM | TGI (SR leukemia): > 100 µM | TGI (SW-620 colon): > 90.2 µM | TGI (TK-10 renal): 5.44 µM | TGI (U251 CNS): 2.98 µM | TGI (UACC-257 melanoma): 13.3 µM | TGI (UACC-62 melanoma): 14.4 µM | TGI (UO-31 renal): 27.3 µM | TGI (XF 498 CNS): 4.31 µM
